# From ChEMBL document CHEMBL4007488, “Amphiphilic Indole Derivatives as Antimycobacterial Agents: Structure-Activity Relationships and Membrane Targeting Properties” (J Med Chem, 2017)
# Experiments:
# Type in all cases: functional
# [1] = system: Mycobacterium tuberculosis variant bovis BCG; test: Ratio of WCC99.9 for Mycobacterium bovis BCG ATCC 35734 under low-oxygen tension conditions to MBC99.9 for Mycobacterium bovis BCG ATCC 35734
# [2] = system: Mycobacterium tuberculosis variant bovis BCG; test: Ratio of WCC99.9 for Mycobacterium bovis BCG ATCC 35734 under low-oxygen tension conditions to MIC90 for Mycobacterium bovis BCG ATCC 35734
# [3] = system: Mycobacterium tuberculosis variant bovis BCG; test: Ratio of MBC99.9 to MIC90 for Mycobacterium bovis BCG ATCC 35734
smiles,measurement,setting,value
CCCCCCCCn1cc(CN2CCCCCC2)c2c(F)cccc21,Ratio,[1],>2
same,Ratio,[2],>4
same,Ratio,[3],2
